The values below come from paper PMC7602980 (Biomolecules, 2020).

Values joined by “and” are separate entries in the source; they are usually repeats but may differ in a detail not shown here. Equal entries are not always repeated.

A short description of series [1]: Circular dichroism (far UV), secondary structure. Format: physicochemical. The note with it: for CD structure with TFE: 1× PBS pH 5.8, up to 25% TFE, result in words. The method, then:
CD experiments were performed on a JASCO J-815 CD spectrometer at 7 °C in the far UV (260–190 nm) with a 0.1 mm path length quartz cell, using a bandwidth of 1 nm, an integration time of 1 s, and a scan rate of 50 nm/min. Each spectrum is the average of 5 scans. All spectra were corrected by subtracting the solvent spectrum acquired under identical conditions. The protein concentration for each sample was 200–500 μM in 1× PBS at pH 5.8. For CD data collection in presence of TFE, 10× PBS was used to keep the final sample at a constant buffer concentration corresponding to 1x PBS. All CD data were processed using the Spectra Analysis software of Jasco Manager Version 2 (Jasco, Easton, PA, USA).
In general terms: Circular dichroism is the unequal absorption of left and right circularly polarised light.

The next series concerns the target T1, CaM (Rattus norvegicus, UniProt P0DP29).
T1 construct: made in house; host or cells: pAED4 vector
Put plainly: NMR titration (15N-HSQC) of 15N-CaM with Cx43CL136-158 peptides. Format: binding. Conditions: result in words.

The test system of a further series is Cx43. The experiment in a line: Ionomycin treatment and Triton X-100 solubility assay, HeLa^Cx43 cells, Western blot. Format: cell-based. Conditions: 100 nM PMA, 1 μM ionomycin, 30 min; insoluble fraction. The source says: (§1) Briefly, 80% confluent parental HeLa cells were transfected with Cx43 WT or ODDD mutations containing pD2529 (puromycin resistant) plasmid using Lipofectamine 2000 (Invitrogen, # 11668019) at a 1:1 (reagent:plasmid) ratio in OptiMem (Life Technologies, #31985070, Carlsbad, CA, USA) under antibiotic free conditions. After re-plating and once colonies were formed, Western blot and immunofluorescence were used to screen the clones (α-Cx43, Sigma #6219, 1:10,000, MilliporeSigma, St. Louis, MO, USA).
After reaching 100% confluency, HeLa^Cx43 cells seeded on 10-cm dishes were incubated in presence of 1 μM ionomycin (Sigma #I0634) for 2 min for equilibration and then either treated with 1 μM ionomycin only as control, or 1 μM ionomycin plus 20 mM Ca^2+, 100 nM PMA (Sigma, # P1585), or 20 mM Ca^2+/100 nM PMA and incubated for 30 min.
The Triton X-100 solubility assay was modified from a method described previously. […] Protein lysate content was quantified by the BCA assay and normalized. […] After analysis of the insoluble fraction by Western blot, quantification from three independent replicates was measured using the iBright Analysis Software (version 3.1.3, Thermo Scientific) and statistical analysis was performed in GraphPad Prism 8.0 (San Diego, CA, USA) using the Ordinary one way Anova calculation. p-values < 0.05 were considered statistically significant.
On the technique in general: Immunoblotting shows a protein as a band on a membrane.

Series [2] concerns Cx43 gap junction channels. Conditions: peptide in patch pipette; ref [15]; cited from earlier work. The source says:
(§2) The CT plays a role in the trafficking, localization, and turnover of gap junction channels via numerous post-translational modifications and protein–protein interactions. The CT is also important for regulating junctional conductance and voltage sensitivity. […] Conversely, only a few protein partners have been identified to directly bind the CL. For example, in the ...

A further series concerns Cx43CT domain. Conditions: ref [14]; cited from earlier work.
Source text: as §2

The conditions of series [3]: pH 5.8; ref [14]; cited from earlier work.
Source text: as §2

In another series the test system is Src. The experiment in a line: In vitro kinase assay, Src phosphorylation of GST-Cx43CT236-382. The series is classed as biochemical. The note with it: CaM ~90% saturation of Cx43CT; 4 h RT; Western blot Cx43 pY265; three independent experiments. The procedure: (§3) After incubation of 4 h at RT for Src, 6 h at 30 °C for ERK1, and 6 h at RT for ERK2, phosphorylation levels of the Cx43CT were detected by Western blot using Cx43 specific anti-phospho antibodies. Three independent experiments were performed and phosphorylation levels were quantified using the iBright Analysis Software and statistical analysis were performed in GraphPad Prism 8.0 using a Student’s t-test. p-values < 0.05 were considered statistically significant.

In another series the test system is Cx43CT236-382. Put plainly: NMR titration (15N-HSQC) of 15N-Cx43CT236-382 with CaM. The series is classed as binding, rat. Conditions: Ca^+2 not present, 10 mM EGTA.
The next series has as its system ERK2. The experiment in a line: In vitro kinase assay, ERK2 phosphorylation of GST-Cx43CT236-382. Format: biochemical. Conditions: CaM ~90% saturation of Cx43CT; 6 h RT; Western blot pS279/S282; three independent experiments. The method, then:
as §3

The subject of a further series is ERK1. Put plainly: In vitro kinase assay, ERK1 phosphorylation of GST-Cx43CT236-382. The series is classed as biochemical. The note with it: CaM ~90% saturation of Cx43CT; 6 h 30 °C; Western blot pS279/S282; three independent experiments; Student's t-test. The procedure:
as §3

For series [4], the system named is HeLa cells. The experiment in a line: In situ Triton X-100 extraction and immunofluorescence, stably transfected HeLa cells. Conditions: 1% Triton X-100 in situ extraction. Format: cell-based.
Source text: as §1
After reaching 100% confluency, cells seeded on glass coverslips were fixed in 4% paraformaldehyde (1× PBS, pH 7.4) and then blocked in 5% goat serum (1× TBS, 0.4% Triton X-100). Coverslips were then incubated with the appropriate primary antibody (α-Cx43, Sigma #6219, 1:200) diluted in blocking buffer overnight at 4 °C. Fluorescent secondary antibody (α-Rb Alexa Fluor 488, Cell Signaling #4412, 1:300) was then applied, followed by DAPI (100 ng/mL in 1× TBS). Coverslips were mounted on a drop of SlowFade anti-fade (Life Technologies, Carlsbad, CA, USA # S36972), sealed with clear nail polish, and imaged.
The in situ detergent extraction was previously described. […]

Series [5] relates to HeLa cells. The experiment in a line: Scrape loading dye transfer, stably transfected HeLa cells. The note with it: cell layers past scrape; 100% confluent HeLa. Format: cell-based.
Source text: as §1
Cell communication was evaluated as previously described. Briefly, stably transfected HeLa cells described above were grown to 100% confluency. Media was replaced with pre-warmed dye transfer solution (0.25% Lucifer yellow CH (Life Technologies # L453) and 0.1% Texas Red 1 × 10^4 (Life Tech # D1863) in 1× PBS at 37 °C) and cells were immediately scrape-loaded with a fine edged micro-scalpel by three longitudinal scratches. After incubating at 37 °C for 4 min, cells were rinsed with 1× PBS and further incubated in antibiotic free media for 6 min. Dye spread was then stopped by washing the cells with 1× PBS containing 1 mM CaCl2 and 1 mM MgCl2. Cells were finally fixed, DAPI stained, mounted, and imaged.

Turning to “Cx43CL100-155: recombinant rat full-length Cx43CL domain, residues M100-Y155 (MRKEEKLNKKEEELKVAQTDGVNVEMHLKQIEIKKFKYGIEEHGKVKMRGGLLRTY; cytoplasmic loop; UniProt P08050 100-155, looked up, fragment)”, the “CD structure with TFE” value in series [1] is listed as “able to form α-helical structure”. Moreover, the α-helical content entry in [1] (1× PBS, pH 5.8, 7 °C, 200–500 μM, estimated by comparing previous data) is “less than 5%”. `CC[C@H](C)[C@H](NC(=O)CNC(=O)[C@H](Cc1ccc(O)cc1)NC(=O)[C@@H](N)CCCCN)C(=O)N[C@@H](CCC(=O)O)C(=O)N[C@@H](CCC(=O)O)C(=O)N[C@@H](Cc1c[nH]cn1)C(=O)NCC(=O)N[C@@H](CCCCN)C(=O)N[C@H](C(=O)N[C@@H](CCCCN)C(=O)N[C@@H](CCSC)C(=O)N[C@@H](CCC(N)=O)C(=O)NCC(=O)NCC(=O)N[C@@H](CC(C)C)C(=O)N[C@@H](CC(C)C)C(=O)N[C@@H](CCCNC(=N)N)C(=O)N[C@H](C(=O)N[C@@H](Cc1ccc(O)cc1)C(=O)N[C@H](C(=O)N[C@H](C(=O)N[C@@H](CO)C(=O)O)[C@@H](C)CC)[C@@H](C)CC)[C@@H](C)O)C(C)C` [R148Q]: the “KD compared with control (WT)” value at CaM is given as “little-to-no difference in KD”. Take `CCCCCCCCCCCCCC(=O)O[C@@H]1[C@@H](C)[C@@]2(O)[C@@H](C=C(CO)C[C@]3(O)C(=O)C(C)=C[C@@H]23)[C@@H]2C(C)(C)[C@]12OC(C)=O` [PMA]: in the series on Cx43, the Y265 phosphorylation entry is on record as “increasing Y265 phosphorylation” and the “level of total Cx43 at the plaque” value was “decreased the level of total Cx43 at the plaque”. For “Cx43L2: synthetic peptide, Cx43CL residues D119-K144”, the “CD structure with TFE” value in [1] is on record as “clearly adopted an α-helical structure”. The “effect on single channel behaviour” value in series [2] was “interfered with the occurrence of the residual state and prolonged open time”. Moreover, in the series on Cx43CT domain, the “affinity for the CT at pH 5.8 compared with pH 7.4” value is reported as “greater than at pH 7.4”. Also, the secondary structure entry in [3] is given as “two short α-helices”. Take “Cx43L1: synthetic peptide, Cx43CL residues M100-A116 (MRKEEKLNKKEEELKVA; UniProt P08050 100-116, looked up, fragment)”: the “CD structure with TFE” value in series [1] was “at 25% of TFE, the spectrum was still typical of a predominantly random coiled protein”. Same read-out and setting: then “Cx43CL100-158: recombinant rat Cx43CL construct, residues M100-S158 (MRKEEKLNKKEEELKVAQTDGVNVEMHLKQIEIKKFKYGIEEHGKVKMRGGLLRTYIIS; cytoplasmic loop; UniProt P08050 100-158, looked up, fragment)”, with “did not elicit the same degree of α-helical content as Cx43CL100-155”. As for `CC[C@H](C)[C@H](NC(=O)CNC(=O)[C@H](Cc1ccc(O)cc1)NC(=O)[C@@H](N)CCCCN)C(=O)N[C@@H](CCC(=O)O)C(=O)N[C@@H](CCC(=O)O)C(=O)N[C@@H](Cc1c[nH]cn1)C(=O)NCC(=O)N[C@@H](CCCCN)C(=O)N[C@H](C(=O)N[C@@H](CCCCN)C(=O)N[C@H](C(=O)N[C@@H](CCCNC(=N)N)C(=O)NCC(=O)NCC(=O)N[C@@H](CC(C)C)C(=O)N[C@@H](CC(C)C)C(=O)N[C@@H](CCCNC(=N)N)C(=O)N[C@H](C(=O)N[C@@H](Cc1ccc(O)cc1)C(=O)N[C@H](C(=O)N[C@H](C(=O)N[C@@H](CO)C(=O)O)[C@@H](C)CC)[C@@H](C)CC)[C@@H](C)O)[C@@H](C)O)C(C)C` [M147T], on CaM, the “KD compared with control (WT)” value is “little-to-no difference in KD”. Take calmodulin [CaM]: the “inhibition of Src phosphorylation of Cx43CT” value in the series on Src was ~ 90% and 90%. Besides, in the series on Cx43CT236-382, the “interaction of CaM with Cx43CT without Ca^2+” value is listed as “the interaction is lost when Ca^+2 is not present”. The “inhibition of ERK2 phosphorylation of Cx43CT” value with ERK2 was ~ 30% and 30%. The “effect on ERK1 phosphorylation of Cx43CT” value in the series on ERK1 is listed as “not statistically significant”. For `CC[C@H](C)[C@H](NC(=O)CNC(=O)[C@H](Cc1ccc(O)cc1)NC(=O)[C@@H](N)CCCCN)C(=O)N[C@@H](CCC(=O)O)C(=O)N[C@@H](CCC(=O)O)C(=O)N[C@@H](Cc1c[nH]cn1)C(=O)NCC(=O)N[C@@H](CCCCN)C(=O)N[C@H](C(=O)N[C@@H](CCCCN)C(=O)N[C@@H](CCSC)C(=O)N[C@@H](CCCNC(=N)N)C(=O)NCC(=O)NCC(=O)N[C@@H](CC(C)C)C(=O)N[C@@H](CC(C)C)C(=O)N[C@@H](CCCNC(=N)N)C(=O)N[C@@H](C)C(=O)N[C@@H](Cc1ccc(O)cc1)C(=O)N[C@H](C(=O)N[C@H](C(=O)N[C@@H](CO)C(=O)O)[C@@H](C)CC)[C@@H](C)CC)C(C)C` [T154A], the “KD compared with control (WT)” value on CaM was “little-to-no difference in KD”. On to “Cx43 WT: Cx43 wild type stably expressed in HeLa cells”, for which the “Triton X-100 solubility / localization” value with HeLa cells [4] is given as “only a small amount of Cx43 washed away in the presence of Triton X-100”. The “Lucifer Yellow dye transfer” value with HeLa cells [5] is given as “greater than a fifth-order dye transfer”.
